Several values for one entry are separate records, joined by “and”; a condition that tells them apart may be missing. Equal values may be shown once.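 Each compound was tested at five concentrations against cells in 96-well plates for 48 hours. At the GI50, growth is halved. TGI denotes the concentration required for complete inhibition of growth.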

Here are results for eight compounds from PubChem BioAssay (NCI).

Test systems include UO-31 renal; ACHN renal; OVCAR-3 ovarian; KM12 colon; SF-268 CNS; SF-539 CNS; HS 578T breast; SK-OV-3 ovarian; DU-145 prostate; CAKI-1 renal.
What all share (assay): NCI anticancer screen, dose series, 48 h

`CCC1=C(C)/C(=C/c2[nH]c(C)c(C(=O)CCCCC(=O)OC)c2C)N=C1c1ccc[nH]1`: the GI50 with UO-31 renal was 8.78 µM; in the assay on ACHN renal, 15.3 µM; in the assay on OVCAR-3 ovarian it was 3.64 µM; in the assay on KM12 colon, 16.6 µM; in the assay on SF-268 CNS it was 7.15 µM; in the assay with SF-539 CNS it was 13.2 µM. Besides, the GI50 in the assay with HS 578T breast is 14.7 µM; in the assay on SK-OV-3 ovarian, 34.6 µM; in the assay on DU-145 prostate it was 12.2 µM; in the assay with CAKI-1 renal, 20.6 µM. Further, the TGI with UO-31 renal was 25.5 µM; with ACHN renal, 31.1 µM; in the assay with OVCAR-3 ovarian, 18.5 µM; with KM12 colon, more than 77.4 µM; with SF-268 CNS it was 47.7 µM; with SF-539 CNS, 27.1 µM. Also, the TGI in the assay with HS 578T breast is 50.4 µM; in the assay with SK-OV-3 ovarian, more than 80.6 µM; in the assay on DU-145 prostate, 24.6 µM; in the assay with CAKI-1 renal, 45.8 µM.
Take `CC(C)(C)[OH+][O-].[O-]c1ccc(Cl)cc1C=Nc1ccc(Cl)cc1[O-].[O]=[V]`: the GI50 in the assay with UO-31 renal was 13.2 µM; in the assay on ACHN renal, 16.2 µM; in the assay on OVCAR-3 ovarian it was 13.5 µM; in the assay with KM12 colon, 10.8 µM; in the assay on SF-268 CNS, 23.7 µM; in the assay with SF-539 CNS, 17.8 µM. The GI50 in the assay with HS 578T breast was 19.4 µM; with SK-OV-3 ovarian, 19.6 µM; in the assay with DU-145 prostate, 16.5 µM; in the assay with CAKI-1 renal, 15.1 µM. Further, the TGI came out at 70.6 µM with UO-31 renal; 48 µM in the assay with ACHN renal; 40.5 µM with OVCAR-3 ovarian; 32 µM in the assay with KM12 colon; 69.3 µM in the assay with SF-268 CNS; 32.5 µM in the assay with SF-539 CNS. Moreover, the TGI in the assay with HS 578T breast came out at 52.6 µM; in the assay with SK-OV-3 ovarian, 46.6 µM; in the assay with DU-145 prostate, 54.2 µM; in the assay on CAKI-1 renal, 52.5 µM.
As to `O=C(/C=C/c1ccco1)c1ccc(Nc2nc(Nc3ccc(F)cc3)nc(Nc3ccc(Cl)cc3)n2)cc1`, the GI50 was more than 60.8 µM in the assay with UO-31 renal; more than 45.2 µM in the assay with ACHN renal; 18 µM in the assay on OVCAR-3 ovarian; 16.7 µM in the assay with KM12 colon; 34.8 µM in the assay on SF-268 CNS; 14.2 µM in the assay with SF-539 CNS. Moreover, the GI50 in the assay with HS 578T breast was 26 µM; with SK-OV-3 ovarian, 26.6 µM; with DU-145 prostate it was 30.9 µM; in the assay on CAKI-1 renal, 19.2 µM. For the same compound, the TGI with UO-31 renal was more than 100 µM; in the assay on ACHN renal, more than 78.9 µM; in the assay with OVCAR-3 ovarian, 56.8 µM; with KM12 colon, 43.4 µM; with SF-268 CNS, more than 86.4 µM; in the assay on SF-539 CNS, 28.3 µM. In addition, the TGI in the assay with HS 578T breast was more than 91.4 µM; with SK-OV-3 ovarian, more than 56.2 µM; with DU-145 prostate, more than 74.7 µM; in the assay with CAKI-1 renal, more than 54 µM.
In the case of `Cc1ccc(C)c(NC(=O)C(=O)C2C(=O)C3=C(CC2(C)C)Nc2ccccc2S3)c1` (configuration not stated), the TGI in the assay on UO-31 renal, in the assay with ACHN renal, with OVCAR-3 ovarian, in the assay on KM12 colon, with SF-268 CNS and in the assay on SF-539 CNS was more than 100 µM in each case. The TGI in the assay on HS 578T breast, with SK-OV-3 ovarian, in the assay with DU-145 prostate and in the assay on CAKI-1 renal was more than 100 µM in each case.
As for `Cc1[nH]c(=O)[nH]c(=O)c1N(CCF)CCCl`, the GI50 with UO-31 renal is 723 µM and 245 µM; in the assay with OVCAR-3 ovarian it was 147 µM and 530 µM; with KM12 colon it was 280 µM and 508 µM; in the assay with SF-268 CNS it was 192 µM and 329 µM; in the assay on SF-539 CNS, 499 µM and 153 µM; in the assay with SK-OV-3 ovarian, 332 µM and 472 µM. Moreover, the GI50 in the assay on CAKI-1 renal was 137 µM. Also, the TGI was 1940 µM and 1110 µM in the assay with UO-31 renal; 1220 µM in the assay with ACHN renal; 356 µM and 1350 µM and 972 µM with OVCAR-3 ovarian; 824 µM and 1330 µM and 719 µM in the assay on KM12 colon; 651 µM and 1120 µM and 1100 µM in the assay with SF-268 CNS; 478 µM and 1680 µM and 768 µM in the assay with SF-539 CNS. The TGI with HS 578T breast was 1660 µM; with SK-OV-3 ovarian, 741 µM and 1330 µM and 1240 µM; in the assay on DU-145 prostate, 1410 µM; in the assay with CAKI-1 renal, 634 µM and 711 µM.
Turning to `O=[N+]([O-])c1ccc(N2CCN(Cc3ccccc3)CC2)c2c1no[n+]2[O-]`, the GI50 in the assay on UO-31 renal is 1.28 µM; with ACHN renal, 0.85 µM; in the assay with OVCAR-3 ovarian, 1.52 µM; with KM12 colon it was 1.48 µM; with SF-268 CNS, 1.42 µM; with SF-539 CNS, 1.54 µM. Moreover, the GI50 in the assay with HS 578T breast is 2.32 µM; in the assay with SK-OV-3 ovarian it was 1.98 µM; in the assay with DU-145 prostate it was 1.57 µM; in the assay with CAKI-1 renal it was 1.42 µM. Also, the TGI in the assay on UO-31 renal worked out at 2.59 µM; with ACHN renal, 2.2 µM; in the assay on OVCAR-3 ovarian, 2.96 µM; in the assay with KM12 colon it was 3.05 µM; in the assay with SF-268 CNS, 3.22 µM; in the assay with SF-539 CNS, 3 µM. The TGI amounted to 7.99 µM in the assay on HS 578T breast, 4.89 µM in the assay on SK-OV-3 ovarian, 2.98 µM in the assay with DU-145 prostate and 3.48 µM with CAKI-1 renal.
For the compound `COc1ccc(-c2ccc(C3CC(c4ccc(O)cc4)=NN3)o2)c([N+](=O)[O-])c1` (configuration not stated), the GI50 in the assay with UO-31 renal was 50.3 µM; in the assay on ACHN renal, 42 µM; in the assay with OVCAR-3 ovarian, 24.1 µM; in the assay on KM12 colon it was 24.5 µM; with SF-268 CNS, 22.3 µM; in the assay with SF-539 CNS, 27.4 µM. Further, the GI50 with HS 578T breast was 34.7 µM; with SK-OV-3 ovarian, 19.8 µM; in the assay with DU-145 prostate, 29.4 µM; in the assay on CAKI-1 renal it was 34.4 µM. The TGI is more than 100 µM in the assay on UO-31 renal; more than 100 µM in the assay with ACHN renal; more than 100 µM with OVCAR-3 ovarian; 95.9 µM in the assay on KM12 colon; more than 100 µM in the assay with SF-268 CNS; 97.5 µM in the assay on SF-539 CNS. Moreover, the TGI with HS 578T breast, with SK-OV-3 ovarian, with DU-145 prostate and in the assay on CAKI-1 renal was more than 100 µM in each case.
As to `O=[N+]([O-])c1cnc(Sc2ccncn2)c([N+](=O)[O-])c1`, the GI50 in the assay with UO-31 renal is 1.55 µM; in the assay with ACHN renal, 1.77 µM; with OVCAR-3 ovarian, 1.76 µM; with KM12 colon, 20.9 µM; with SF-268 CNS, 16 µM; in the assay on SF-539 CNS it was 15.3 µM. Besides, the GI50 is 19.2 µM in the assay with HS 578T breast, 16.9 µM in the assay with SK-OV-3 ovarian, 16.7 µM in the assay on DU-145 prostate and 1.6 µM in the assay with CAKI-1 renal. Also, the TGI with UO-31 renal stood at 2.98 µM; in the assay with ACHN renal it was 3.27 µM; in the assay on OVCAR-3 ovarian, 3.17 µM; with KM12 colon it was 55.1 µM; in the assay with SF-268 CNS it was 30.7 µM; with SF-539 CNS, 28.9 µM. Moreover, the TGI in the assay with HS 578T breast was 57.2 µM; in the assay with SK-OV-3 ovarian, 31.1 µM; in the assay with DU-145 prostate it was 30.5 µM; with CAKI-1 renal, 3.07 µM.
